Blank lines part the entries; values can stand above or below the compound they belong to. Where a SMILES comes first, the peptide text is derived from it. Bridges are numbered along the chain shown (N, C = ends). Where no end group is shown, it is not given here.
Columns and labels:
[1] = In vitro stability of peptides in human plasma; format: in vitro ADME; conditions: for main metabolite / main degradation product: Mass Spectrometry
Raw 264 macrophages = assay: Inflammatory response in vitro: LPS-activated macrophages; format: cell-based, murine; conditions: 100 nmol/L peptide
[2] = tested on: DSS-induced acute colitis; assay: DSS-induced acute ulcerative colitis; format: in vivo, C57Bl/6 mice; conditions: 5% DSS, i.p. days 1, 2, 3, day 8
[3] = tested on: TNBS-induced chronic colitis; assay: TNBS-induced chronic colitis; format: in vivo, Balb/c mice; conditions: tolerance regime, treatment during first week only; n=8
[4] = tested on: TNBS-induced acute colitis; assay: TNBS-induced acute colitis, curative regime; format: in vivo, BALB/c mice; conditions: TNBS 3 mg/mouse
[5] = tested on: TNBS-induced acute colitis; assay: TNBS-induced acute colitis, protective regime; format: in vivo, BALB/c mice; conditions: TNBS 3 mg/mouse, 0.4 mg/kg systemic, n=8
[6] = tested on: DSS-induced chronic colitis; assay: DSS-induced chronic; format: in vivo, C57Bl/6 mice
Aqueous solubility = format: physicochemical; conditions: aqueous buffer solution, observation in words

main metabolite / main degradation product [1]: deletion of L-Lys14
Compound: C[C@@H](O)[C@@H]1NC(=O)[C@H](CCCCN)NC(=O)[C@H](Cc2c[nH]c3ccccc23)NC(=O)[C@H](Cc2ccccc2)NC(=O)[C@H](Cc2ccccc2)NC(=O)[C@H](CC(N)=O)NC(=O)[C@H](CCCCN)NC(=O)[C@@H](NC(=O)[C@@H]2CCCN2)CSSC[C@@H](C(=O)N[C@@H](CCCCN)C(=O)O)NC(=O)[C@H](CO)NC(=O)[C@H](CO)NC(=O)[C@H](Cc2ccccc2)NC1=O [Cortistatin, Cortistatin-14, reference compound] (H-PCKNFFWKTFSSCK-OH; disulfide 2-13)

Compound: Cc1cc(C)c(C[C@@H]2NC(=O)[C@H](Cc3ccccc3)NC(=O)[C@H](CC(N)=O)NC(=O)[C@H](CCCCN)NC(=O)[C@@H](NC(=O)[C@@H]3CCCN3)CSSC[C@@H](C(=O)N[C@@H](CCCCN)C(=O)O)NC(=O)[C@H](CO)NC(=O)[C@H]([C@@H](C)O)NC(=O)[C@H](Cc3ccccc3)NC(=O)[C@H]([C@@H](C)O)NC(=O)[C@H](CCCCN)NC(=O)[C@@H](Cc3c[nH]c4ccccc34)NC2=O)c(C)c1 [Analog 2]
effect on production of TNFα, IL-6 and NO by activated macrophages (Raw 264 macrophages): no effect

Compound: CCCCCCCC(=O)N1CCC[C@H]1C(=O)N[C@H]1CSSC[C@@H](C(=O)N[C@@H](CCCCN)C(=O)O)NC(=O)[C@H](CO)NC(=O)[C@H]([C@@H](C)O)NC(=O)[C@H](Cc2ccccc2)NC(=O)[C@H]([C@@H](C)O)NC(=O)[C@H](CCCCN)NC(=O)[C@@H](Cc2c[nH]c3ccccc23)NC(=O)[C@H](Cc2c(C)cc(C)cc2C)NC(=O)[C@H](Cc2ccccc2)NC(=O)[C@H](CC(N)=O)NC(=O)[C@H](CCCCN)NC1=O [Analog 3]
effect on production of TNFα, IL-6 and NO by activated macrophages (Raw 264 macrophages): no effect

Compound: Cortistatin-29 (QEGAPPQQSARRDRMPCRNFFWKTFSSCK; disulfide 17-28 (inferred); ends not checked; UniProt O00230 77-105, looked up)
Colon length ([2]; mean of n=8): 9.08 cm
Colon weight ([2]; mean of n=8): 621 mg
Macroscopic score for colon (0-8) ([2]; mean of n=8): 0.87
Colon length ([2]; mouse 1): 8.9 cm
Colon weight ([2]; mouse 1): 622 mg
Macroscopic score for colon (0-8) ([2]; mouse 1): 1
Colon length ([2]; mouse 2): 9.1 cm
Colon weight ([2]; mouse 2): 634 mg
Macroscopic score for colon (0-8) ([2]; mouse 2): 1
Colon length ([2]; mouse 3): 9.5 cm
Colon weight ([2]; mouse 3): 578 mg
Macroscopic score for colon (0-8) ([2]; mouse 3): 0
Colon length ([2]; mouse 4): 8.4 cm
Colon weight ([2]; mouse 4): 655 mg
Macroscopic score for colon (0-8) ([2]; mouse 4): 2
Colon length ([2]; mouse 5): 9.2 cm
Colon weight ([2]; mouse 5): 607 mg
Macroscopic score for colon (0-8) ([2]; mouse 5): 1
Colon length ([2]; mouse 6): 8.9 cm
Colon weight ([2]; mouse 6): 632 mg
Macroscopic score for colon (0-8) ([2]; mouse 6): 1
Colon length ([2]; mouse 7): 9.6 cm
Colon weight ([2]; mouse 7): 612 mg
Macroscopic score for colon (0-8) ([2]; mouse 7): 0
Colon length ([2]; mouse 8): 9.1 cm
Colon weight ([2]; mouse 8): 635 mg
Macroscopic score for colon (0-8) ([2]; mouse 8): 1

Compound: Nc1ccc(O)c(C(=O)O)c1 [mesalazine, 5-aminosalycilic acid, reference compound]
protection from subsequent expositions to TNBS, tolerance effect [3]: fully or partially failed

Compound: CCCCCCCC(=O)N1CCC[C@H]1C(=O)N[C@H]1CSSC[C@@H](C(=O)N[C@@H](CCCCN)C(=O)O)NC(=O)[C@H](CO)NC(=O)[C@H]([C@@H](C)O)NC(=O)[C@H](Cc2ccccc2)NC(=O)[C@H]([C@@H](C)O)NC(=O)[C@H](CCCCN)NC(=O)[C@@H](Cc2c[nH]c3ccccc23)NC(=O)[C@H](Cc2ccccc2)NC(=O)[C@H](Cc2c(C)cc(C)cc2C)NC(=O)[C@H](CC(N)=O)NC(=O)[C@H](CCCCN)NC1=O [Analog 5]
main metabolite / main degradation product [1]: peptide 6
increase of stability in serum with respect to the native neuropeptide ([1]; from half-lives in serum): ten-fold
effect on clinical signs and survival ([4]; curative regime days 3, 4, 5, i.p. or s.c. 0.4 mg/kg, n=8): significantly effective
effectiveness of oral administration versus i.p. and s.c. ([4]; curative regime, oral): less effective
protection from body weight loss, bloody diarrhea and mortality [5]: significantly protected
Lengths (cm) for colons at day 25 after initiation of DSS treatment ([6]; Group 3: DSS+A5 one cycle, mean of 8 mice): 8.24 cm
Lengths (cm) for colons at day 25 after initiation of DSS treatment ([6]; Group 3: DSS+A5 one cycle, mouse 1): 8.15 cm
Lengths (cm) for colons at day 25 after initiation of DSS treatment ([6]; Group 3: DSS+A5 one cycle, mouse 2): 8.78 cm
Lengths (cm) for colons at day 25 after initiation of DSS treatment ([6]; Group 3: DSS+A5 one cycle, mouse 3): 7.86 cm
Lengths (cm) for colons at day 25 after initiation of DSS treatment ([6]; Group 3: DSS+A5 one cycle, mouse 5): 8.77 cm
Lengths (cm) for colons at day 25 after initiation of DSS treatment ([6]; Group 3: DSS+A5 one cycle, mouse 6): 7.24 cm
Lengths (cm) for colons at day 25 after initiation of DSS treatment ([6]; Group 3: DSS+A5 one cycle, mouse 7): 7.02 cm
Lengths (cm) for colons at day 25 after initiation of DSS treatment ([6]; Group 3: DSS+A5 one cycle, mouse 8): 9.14 cm
Lengths (cm) for colons at day 25 after initiation of DSS treatment ([6]; Group 4: DSS+A5 two cycles, mean of 8 mice): 9.64 cm
Lengths (cm) for colons at day 25 after initiation of DSS treatment ([6]; Group 4: DSS+A5 two cycles, mouse 3): 9.85 cm
Lengths (cm) for colons at day 25 after initiation of DSS treatment ([6]; Group 4: DSS+A5 two cycles, mouse 5): 9.34 cm
Lengths (cm) for colons at day 25 after initiation of DSS treatment ([6]; Group 4: DSS+A5 two cycles, mouse 7): 9.61 cm
Lengths (cm) for colons at day 25 after initiation of DSS treatment ([6]; Group 4: DSS+A5 two cycles, mouse 8): 9.15 cm
Colon length ([2]; mean of n=8): 8.65 cm
Colon weight ([2]; mean of n=8): 625 mg
Macroscopic score for colon (0-8) ([2]; mean of n=8): 1
Colon weight ([2]; mouse 1): 624 mg
Macroscopic score for colon (0-8) ([2]; mouse 1): 1
Colon length ([2]; mouse 2): 8.7 cm
Colon weight ([2]; mouse 2): 631 mg
Macroscopic score for colon (0-8) ([2]; mouse 2): 1
Colon length ([2]; mouse 3): 9.3 cm
Colon weight ([2]; mouse 3): 581 mg
Macroscopic score for colon (0-8) ([2]; mouse 3): 0
Colon length ([2]; mouse 4): 7.8 cm
Colon weight ([2]; mouse 4): 662 mg
Macroscopic score for colon (0-8) ([2]; mouse 4): 2
Colon length ([2]; mouse 5): 9.2 cm
Colon weight ([2]; mouse 5): 611 mg
Macroscopic score for colon (0-8) ([2]; mouse 5): 0
Colon length ([2]; mouse 6): 8.4 cm
Colon weight ([2]; mouse 6): 597 mg
Macroscopic score for colon (0-8) ([2]; mouse 6): 1
Colon length ([2]; mouse 7): 8.6 cm
Colon weight ([2]; mouse 7): 624 mg
Macroscopic score for colon (0-8) ([2]; mouse 7): 1
Colon length ([2]; mouse 8): 8.1 cm
Colon weight ([2]; mouse 8): 677 mg
Macroscopic score for colon (0-8) ([2]; mouse 8): 2
protection from subsequent expositions to TNBS, tolerance effect [3]: significantly protected
aqueous solubility (Aqueous solubility): soluble
effect on production of TNFα, IL-6 and NO by activated macrophages (Raw 264 macrophages): strikingly reduced

Compound: Cc1cc(C)c(C[C@@H]2NC(=O)[C@H](CC(N)=O)NC(=O)[C@H](CCCCN)NC(=O)[C@@H](NC(=O)[C@@H]3CCCN3)CSSC[C@@H](C(=O)N[C@@H](CCCCN)C(=O)O)NC(=O)[C@H](CO)NC(=O)[C@H]([C@@H](C)O)NC(=O)[C@H](Cc3ccccc3)NC(=O)[C@H]([C@@H](C)O)NC(=O)[C@H](CCCCN)NC(=O)[C@@H](Cc3c[nH]c4ccccc34)NC(=O)[C@H](Cc3ccccc3)NC2=O)c(C)c1 [Analog 4, [L-Msa5_D-Trp7_L-Thr11]-CST14]
effect on production of TNFα, IL-6 and NO by activated macrophages (Raw 264 macrophages): no effect

— paper doi:10.1101/839787v1 (bioRxiv, 2019)
